Measurements reported in ChEMBL document CHEMBL5465560, “Selectivity Literature for EUbOPEN Chemogenomic Library” (2024).

Tests used:
[1] = biological target: Mitogen-activated protein kinase kinase kinase 1 (Homo sapiens, UniProt Q13233); test: Selectivity interaction (KinomeScan (DiscoverX)) EUB0000666a MAP3K1; conditions: at 10 µM
[2] = biological target: Phosphatidylinositol 4-phosphate 3-kinase C2 domain-containing subunit beta (Homo sapiens) (UniProt O00750); test: Selectivity interaction (KinomeScan (DiscoverX)) EUB0000666a PIK3C2B; conditions: at 10 µM
Sequence of Phosphatidylinositol 4-phosphate 3-kinase C2 domain-containing subunit beta (Homo sapiens) (O00750 whole entry, the tested form may be a part): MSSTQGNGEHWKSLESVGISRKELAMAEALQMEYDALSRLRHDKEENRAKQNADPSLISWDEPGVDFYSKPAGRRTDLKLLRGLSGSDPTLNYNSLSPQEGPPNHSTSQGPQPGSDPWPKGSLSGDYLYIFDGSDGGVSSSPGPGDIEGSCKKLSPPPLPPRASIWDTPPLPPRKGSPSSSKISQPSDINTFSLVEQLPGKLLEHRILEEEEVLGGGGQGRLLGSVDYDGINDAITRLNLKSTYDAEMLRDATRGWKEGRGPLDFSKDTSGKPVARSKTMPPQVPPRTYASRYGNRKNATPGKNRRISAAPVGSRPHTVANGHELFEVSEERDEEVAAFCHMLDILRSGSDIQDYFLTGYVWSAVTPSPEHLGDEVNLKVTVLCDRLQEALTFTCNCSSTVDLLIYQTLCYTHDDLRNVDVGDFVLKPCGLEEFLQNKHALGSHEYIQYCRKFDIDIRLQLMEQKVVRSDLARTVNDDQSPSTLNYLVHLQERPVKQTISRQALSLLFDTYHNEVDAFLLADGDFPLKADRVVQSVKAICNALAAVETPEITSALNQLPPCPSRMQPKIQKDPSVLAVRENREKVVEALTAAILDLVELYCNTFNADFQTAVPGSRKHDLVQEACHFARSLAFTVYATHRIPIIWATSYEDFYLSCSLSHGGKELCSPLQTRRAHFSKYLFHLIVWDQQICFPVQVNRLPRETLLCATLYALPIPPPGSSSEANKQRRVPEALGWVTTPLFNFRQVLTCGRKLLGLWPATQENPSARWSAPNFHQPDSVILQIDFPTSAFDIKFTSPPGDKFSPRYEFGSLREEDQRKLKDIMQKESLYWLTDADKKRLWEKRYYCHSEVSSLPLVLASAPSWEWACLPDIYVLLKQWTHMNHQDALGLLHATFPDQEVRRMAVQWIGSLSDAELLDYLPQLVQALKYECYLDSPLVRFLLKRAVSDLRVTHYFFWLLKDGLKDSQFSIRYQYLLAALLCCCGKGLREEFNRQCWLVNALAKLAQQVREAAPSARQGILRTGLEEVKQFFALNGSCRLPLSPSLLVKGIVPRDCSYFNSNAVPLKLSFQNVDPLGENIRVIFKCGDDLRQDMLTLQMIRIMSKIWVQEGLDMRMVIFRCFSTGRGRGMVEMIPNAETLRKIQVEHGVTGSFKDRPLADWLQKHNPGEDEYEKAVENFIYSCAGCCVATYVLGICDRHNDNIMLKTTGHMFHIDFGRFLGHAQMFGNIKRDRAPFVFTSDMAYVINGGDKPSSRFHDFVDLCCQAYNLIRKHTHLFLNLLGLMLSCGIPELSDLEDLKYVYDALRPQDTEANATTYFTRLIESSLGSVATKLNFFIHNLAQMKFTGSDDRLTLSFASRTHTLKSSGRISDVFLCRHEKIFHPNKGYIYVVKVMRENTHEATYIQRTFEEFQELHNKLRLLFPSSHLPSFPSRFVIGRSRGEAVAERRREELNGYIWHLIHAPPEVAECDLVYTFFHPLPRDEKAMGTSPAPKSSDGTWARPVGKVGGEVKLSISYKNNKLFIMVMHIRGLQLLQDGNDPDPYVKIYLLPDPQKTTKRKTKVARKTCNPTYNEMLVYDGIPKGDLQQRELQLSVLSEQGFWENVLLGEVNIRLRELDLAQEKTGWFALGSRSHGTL

[3] = biological target: T1, Cytoplasmic tyrosine-protein kinase BMX (Homo sapiens) (UniProt P51813); test: Selectivity interaction (ProQinase) EUB0000171b BMX
T1 sequence (whole entry): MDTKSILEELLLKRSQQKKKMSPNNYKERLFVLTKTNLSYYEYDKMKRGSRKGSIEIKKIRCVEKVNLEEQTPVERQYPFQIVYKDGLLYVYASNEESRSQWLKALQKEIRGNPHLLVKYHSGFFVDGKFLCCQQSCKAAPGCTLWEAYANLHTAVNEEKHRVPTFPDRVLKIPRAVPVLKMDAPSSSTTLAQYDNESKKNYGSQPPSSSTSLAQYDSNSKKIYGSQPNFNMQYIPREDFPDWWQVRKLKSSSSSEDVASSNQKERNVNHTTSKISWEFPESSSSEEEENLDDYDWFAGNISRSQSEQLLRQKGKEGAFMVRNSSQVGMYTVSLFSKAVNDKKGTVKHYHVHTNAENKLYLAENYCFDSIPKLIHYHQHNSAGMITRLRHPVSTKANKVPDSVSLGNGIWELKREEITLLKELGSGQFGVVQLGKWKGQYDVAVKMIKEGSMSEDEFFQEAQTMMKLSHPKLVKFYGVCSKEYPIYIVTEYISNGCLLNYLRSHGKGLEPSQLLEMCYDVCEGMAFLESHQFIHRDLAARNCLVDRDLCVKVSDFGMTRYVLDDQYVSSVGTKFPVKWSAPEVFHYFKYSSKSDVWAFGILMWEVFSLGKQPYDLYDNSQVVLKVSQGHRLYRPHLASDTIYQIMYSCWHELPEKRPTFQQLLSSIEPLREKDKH

[4] = biological target: T2, Serine/threonine-protein kinase 4 (Homo sapiens) (UniProt Q13043); test: Selectivity interaction (KinomeScan (DiscoverX)) EUB0000695a STK4; conditions: at 100 nM
T2 sequence (whole entry): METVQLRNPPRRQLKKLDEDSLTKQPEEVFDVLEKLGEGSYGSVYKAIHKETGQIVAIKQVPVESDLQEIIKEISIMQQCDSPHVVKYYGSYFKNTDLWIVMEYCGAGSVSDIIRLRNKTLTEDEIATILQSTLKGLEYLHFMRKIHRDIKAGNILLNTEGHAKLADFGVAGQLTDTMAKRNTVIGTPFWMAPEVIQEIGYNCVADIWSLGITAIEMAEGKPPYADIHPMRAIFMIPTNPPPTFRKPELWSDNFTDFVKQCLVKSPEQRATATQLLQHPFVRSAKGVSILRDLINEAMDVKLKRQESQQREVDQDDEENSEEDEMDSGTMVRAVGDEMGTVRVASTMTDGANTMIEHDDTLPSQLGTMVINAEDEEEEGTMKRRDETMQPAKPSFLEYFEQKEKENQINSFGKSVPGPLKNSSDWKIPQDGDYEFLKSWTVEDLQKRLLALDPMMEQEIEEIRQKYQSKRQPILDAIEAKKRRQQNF

[5] = biological target: T3, Mitogen-activated protein kinase kinase kinase 19 (Homo sapiens) (UniProt Q56UN5); test: Selectivity interaction (KinomeScan (DiscoverX)) EUB0000595a MAP3K19; conditions: at 10 µM
T3 sequence (whole entry): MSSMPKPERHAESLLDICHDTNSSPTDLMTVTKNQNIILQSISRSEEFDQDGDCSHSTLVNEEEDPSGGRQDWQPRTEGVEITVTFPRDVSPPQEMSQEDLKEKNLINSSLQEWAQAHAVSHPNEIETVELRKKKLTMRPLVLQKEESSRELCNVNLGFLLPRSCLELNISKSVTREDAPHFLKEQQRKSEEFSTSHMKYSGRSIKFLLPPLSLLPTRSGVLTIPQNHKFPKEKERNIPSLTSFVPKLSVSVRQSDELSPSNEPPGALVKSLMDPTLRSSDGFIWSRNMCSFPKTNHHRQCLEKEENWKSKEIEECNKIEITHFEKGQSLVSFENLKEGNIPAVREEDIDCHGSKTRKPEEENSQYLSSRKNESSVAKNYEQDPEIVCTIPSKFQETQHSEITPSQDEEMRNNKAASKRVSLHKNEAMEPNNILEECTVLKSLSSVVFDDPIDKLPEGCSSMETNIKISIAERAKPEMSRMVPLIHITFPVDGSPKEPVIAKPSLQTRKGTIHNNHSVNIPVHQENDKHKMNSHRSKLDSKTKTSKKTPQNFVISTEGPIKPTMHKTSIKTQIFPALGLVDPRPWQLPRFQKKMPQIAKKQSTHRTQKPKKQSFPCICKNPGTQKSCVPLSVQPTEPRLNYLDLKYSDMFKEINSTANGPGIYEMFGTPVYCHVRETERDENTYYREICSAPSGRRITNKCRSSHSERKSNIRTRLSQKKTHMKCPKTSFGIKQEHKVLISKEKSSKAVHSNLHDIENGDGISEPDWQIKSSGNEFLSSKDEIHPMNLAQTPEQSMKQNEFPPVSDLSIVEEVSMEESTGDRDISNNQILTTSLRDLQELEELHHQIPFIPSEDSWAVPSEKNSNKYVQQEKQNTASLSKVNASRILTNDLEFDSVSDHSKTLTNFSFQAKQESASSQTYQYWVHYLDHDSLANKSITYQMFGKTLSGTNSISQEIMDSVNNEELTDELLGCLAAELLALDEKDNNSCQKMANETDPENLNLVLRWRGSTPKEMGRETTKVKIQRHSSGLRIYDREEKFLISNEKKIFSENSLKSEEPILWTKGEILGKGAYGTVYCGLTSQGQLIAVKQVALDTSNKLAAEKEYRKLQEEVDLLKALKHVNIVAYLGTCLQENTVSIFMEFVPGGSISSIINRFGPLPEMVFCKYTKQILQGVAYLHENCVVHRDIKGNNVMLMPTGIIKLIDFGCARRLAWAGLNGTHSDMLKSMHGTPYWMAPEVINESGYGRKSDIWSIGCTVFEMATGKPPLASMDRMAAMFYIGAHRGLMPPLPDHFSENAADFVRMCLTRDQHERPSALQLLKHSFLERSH

[6] = biological target: Casein kinase II subunit alpha (Homo sapiens, UniProt P68400); test: Selectivity interaction (KinomeScan (DiscoverX)) EUB0001079a CSNK2A1; conditions: at 1 µM
Sequence of Casein kinase II subunit alpha (P68400 whole entry, looked up): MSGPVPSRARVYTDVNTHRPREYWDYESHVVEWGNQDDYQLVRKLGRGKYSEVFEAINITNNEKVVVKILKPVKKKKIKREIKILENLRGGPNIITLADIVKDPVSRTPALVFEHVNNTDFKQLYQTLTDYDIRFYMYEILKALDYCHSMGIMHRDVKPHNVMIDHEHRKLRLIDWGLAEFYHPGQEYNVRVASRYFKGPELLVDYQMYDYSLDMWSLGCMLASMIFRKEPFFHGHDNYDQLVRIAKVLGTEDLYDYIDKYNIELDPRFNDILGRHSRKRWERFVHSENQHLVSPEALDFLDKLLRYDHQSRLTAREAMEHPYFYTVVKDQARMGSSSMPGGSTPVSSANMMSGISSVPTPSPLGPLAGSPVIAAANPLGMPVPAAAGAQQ

[7] = biological target: Cyclin-dependent kinase 15 (Homo sapiens) (UniProt Q96Q40); test: Selectivity interaction (KinomeScan (DiscoverX)) EUB0000229b CDK15; conditions: at 10 µM
Sequence of Cyclin-dependent kinase 15 (Homo sapiens) (Q96Q40 whole entry): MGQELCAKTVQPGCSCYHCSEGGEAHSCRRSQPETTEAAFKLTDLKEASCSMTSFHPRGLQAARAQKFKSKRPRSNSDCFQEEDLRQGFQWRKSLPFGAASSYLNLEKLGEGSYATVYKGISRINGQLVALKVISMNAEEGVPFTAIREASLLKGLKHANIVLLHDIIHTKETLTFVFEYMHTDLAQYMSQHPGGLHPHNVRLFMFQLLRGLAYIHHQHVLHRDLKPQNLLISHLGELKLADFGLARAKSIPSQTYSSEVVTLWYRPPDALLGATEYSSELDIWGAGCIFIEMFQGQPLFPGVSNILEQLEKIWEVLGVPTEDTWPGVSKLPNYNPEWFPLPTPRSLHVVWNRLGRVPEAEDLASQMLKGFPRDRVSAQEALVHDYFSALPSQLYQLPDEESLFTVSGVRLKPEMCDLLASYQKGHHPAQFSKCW

Sequence of Mitogen-activated protein kinase kinase kinase 1 (Q13233 whole entry, the tested form may be a part): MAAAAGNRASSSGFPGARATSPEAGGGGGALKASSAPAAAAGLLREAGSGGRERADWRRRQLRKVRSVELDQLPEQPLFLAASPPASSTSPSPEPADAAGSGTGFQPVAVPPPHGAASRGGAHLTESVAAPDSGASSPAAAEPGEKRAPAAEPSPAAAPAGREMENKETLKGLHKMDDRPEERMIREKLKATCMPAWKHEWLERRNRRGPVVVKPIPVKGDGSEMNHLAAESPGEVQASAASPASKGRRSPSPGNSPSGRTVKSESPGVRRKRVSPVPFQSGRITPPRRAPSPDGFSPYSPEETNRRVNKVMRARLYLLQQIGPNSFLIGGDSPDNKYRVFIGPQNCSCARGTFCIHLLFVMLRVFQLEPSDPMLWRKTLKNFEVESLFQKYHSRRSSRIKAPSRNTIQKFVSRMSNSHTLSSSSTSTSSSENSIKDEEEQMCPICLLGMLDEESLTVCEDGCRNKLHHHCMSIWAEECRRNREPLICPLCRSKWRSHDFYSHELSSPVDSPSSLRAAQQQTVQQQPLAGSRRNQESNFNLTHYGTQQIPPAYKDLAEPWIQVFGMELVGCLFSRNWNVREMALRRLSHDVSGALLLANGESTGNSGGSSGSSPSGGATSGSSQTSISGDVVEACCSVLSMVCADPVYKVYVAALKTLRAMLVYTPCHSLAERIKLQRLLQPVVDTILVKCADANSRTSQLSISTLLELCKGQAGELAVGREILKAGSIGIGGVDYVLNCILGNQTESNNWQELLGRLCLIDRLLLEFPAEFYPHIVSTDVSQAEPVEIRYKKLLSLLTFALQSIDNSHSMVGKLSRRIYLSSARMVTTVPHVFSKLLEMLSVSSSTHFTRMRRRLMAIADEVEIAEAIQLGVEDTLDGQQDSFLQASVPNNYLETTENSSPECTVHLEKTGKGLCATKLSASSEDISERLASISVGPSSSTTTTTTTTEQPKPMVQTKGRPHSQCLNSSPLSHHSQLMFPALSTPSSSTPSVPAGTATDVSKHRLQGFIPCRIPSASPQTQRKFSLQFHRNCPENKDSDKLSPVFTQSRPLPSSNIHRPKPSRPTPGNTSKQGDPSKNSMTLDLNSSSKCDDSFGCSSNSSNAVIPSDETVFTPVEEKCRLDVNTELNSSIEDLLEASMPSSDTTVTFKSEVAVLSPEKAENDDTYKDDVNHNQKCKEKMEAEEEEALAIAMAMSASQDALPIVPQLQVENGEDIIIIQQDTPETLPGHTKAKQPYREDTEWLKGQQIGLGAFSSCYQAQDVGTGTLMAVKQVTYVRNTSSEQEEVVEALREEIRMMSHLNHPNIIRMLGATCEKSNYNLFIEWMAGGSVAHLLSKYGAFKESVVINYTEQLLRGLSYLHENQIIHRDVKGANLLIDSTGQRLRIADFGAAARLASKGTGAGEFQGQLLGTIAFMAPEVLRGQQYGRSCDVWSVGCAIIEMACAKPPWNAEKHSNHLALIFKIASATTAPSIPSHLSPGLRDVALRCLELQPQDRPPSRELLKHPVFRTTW

## O=C(NOC[C@H](O)CO)c1ccc(F)c(F)c1Nc1ccc(I)cc1F
[1]
  % of control: 54%
[2]
  % of control: 100%

## C=CC(=O)Nc1cccc(C(=O)Nc2ccc(Nc3cc(-c4[nH]c(SC)nc4C)ccn3)cc2)c1
[3]; at 1 µM
  % of control: 106%
[3]; at 5 µM
  % of control: 85%

## Cc1cc(F)c(C(=O)Nc2cccc(-c3nncn3C(C)C)n2)cc1-n1cnc(C2CC2)c1
[4]
  % of control: 100%

## COCC(=O)NC/C=C/c1ccc2ncnc(Nc3ccc(Oc4ccc(C)nc4)c(C)c3)c2c1 [CP-724714]
[5]
  % of control: 100%

## Nc1cnc(N2CCc3cc(S(=O)(=O)Nc4c(F)cc(Cl)cc4F)cc(N4CCCC4=O)c32)nc1 [TP-020n]
[6]
  % of control: 100%

## COc1cc(N(C)c2ccnc3ccc(C(F)(F)F)cc23)cc(OC)c1OC
[7]
  % binding: 85%
